# Measured values reported in patent US20100022415A1, “ACTIVE CARRIER, ITS PRODUCTION AND ITS USE” (AVICOR KET., priority 2006, published 2010).
# Tested on: streptavidin
# Assay: Affinity chromatography: elution of labeled streptavidin from biotinylated glass beads
# Type: binding
# Details: washing with solutions of increasing concentrations; absorbance of eluate (FIG. 5)
# Procedure: The biotinylated glass beads were added to 1 ml PBS, to which 50 μg of streptavidin labeled with Cy5 fluorescent dye was added (total dye: 0.3 OD640/ml). The resulting solution was stirred, then OD640 was measured again, the detected value was 0.003. […] Two chromatographic analyses were performed to verify the specific binding. During the first, 100 mg of the biotinylated glass beads was washed with biotin solutions with increasing concentrations, and in the second, the column containing biotinylated glass beads was washed with benzamidine solutions of increasing concentrations. The absorbance of the eluate was measured continuously (FIG. 5).
structure (smiles),measurement,value
O=C(O)CCCC[C@@H]1SC[C@@H]2NC(=O)N[C@@H]21 [biotin],Elution of fluorescent labeled streptavidin from biotinylated glass beads,could be eluted only with the biotin solution
